Source: patent publication EP4596574A1, “GLP-1/GCG/GIP TRIPLE-RECEPTOR AGONIST AND USE THEREOF” (Sunshine Lake Pharma Co., Ltd., priority 2022, dated 2024)
Marks after values point to notes of the source that are not given here.

Experiment: Long-term repeated administration in diet-induced obese C57BL/6 mice (DIO)
Type: in vivo, C57/BL6 mice
From the text: Experimental methods: C57/BL6 mice were randomly divided into a normal group (NFD) and a model group (HFD) at the fifth week of age. The normal group was fed with ordinary maintenance feed, while the other groups were fed with high-fat feed D12492. The body weight and food intake of mice were monitored every 3 weeks. After 16 weeks of feeding, the body weights of mice in the model group and the normal group were (49.0±2.3) g and (31.0±2.0) g, respectively, and the difference between the two groups was statistically significant. […] Body weight and food intake were measured before each administration. After 3 weeks of administration, an intraperitoneal glucose tolerance test was performed. The mice were slaughtered and samples were collected 72 h after the last administration. The liver weight was recorded, and the liver pathological conditions and blood biochemical indexes of each group were tested.

[1] = 10 nmol/kg s.c. once every 3 days, D7
[2] = 10 nmol/kg s.c. once every 3 days, D10
[3] = 10 nmol/kg s.c. once every 3 days, D13
[4] = 10 nmol/kg s.c. once every 3 days, D16
[5] = 10 nmol/kg s.c. once every 3 days, D19
[6] = 10 nmol/kg s.c. once every 3 days, D22
[7] = 10 nmol/kg s.c. once every 3 days, D25
[8] = 10 nmol/kg s.c. once every 3 days, D28
[9] = long-term administration 10 nmol/kg, 72 h after the last administration
[10] = long-term administration 10 nmol/kg, blood biochemical index

Substance: semaglutide [reference compound]
- Cumulative food intake (g/pcs) D7 [1]: 14.1 g/pcs
- Weight gain rate (%) D7 [1]: -8.1±1.7%
- Cumulative food intake (g/pcs) D10 [2]: 19.4 g/pcs
- Weight gain rate (%) D10 [2]: -10.8±2.2%
- Cumulative food intake (g/each) D13 [3]: 25.2 g/each
- Weight gain rate (%) D13 [3]: -13.5±3.2%
- Cumulative food intake (g/each) D16 [4]: 31.5 g/each
- Weight gain rate (%) D16 [4]: -14.2±3.8%
- Cumulative food intake (g/each) D19 [5]: 38.1 g/each
- Weight gain rate (%) D19 [5]: -14.2±4.1%
- Cumulative food intake (g/each) D22 [6]: 45.0 g/each
- Weight gain rate (%) D22 [6]: -14.5±4.5%
- Cumulative food intake (g/each) D25 [7]: 51.6 g/each
- Weight gain rate (%) D25 [7]: -16.5±4.1%
- Cumulative food intake (g/each) D28 [8]: 58.9 g/each
- Weight gain rate (%) D28 [8]: -18.5±5.1%
- Cumulative food intake (g/each) D30 (10 nmol/kg s.c. once every 3 days, D30): 63.9^a g/each
- Weight gain rate (%) D31 (10 nmol/kg s.c. once every 3 days, D31): -17.4±4.9^a %
- Cumulative food intake (g/pcs) D0 (10 nmol/kg s.c., D0): 2.6 g/pcs
- Weight gain rate (%) D0 (10 nmol/kg s.c., D0): 0.0±0.0%
- Cumulative food intake (g/pcs) D1 (10 nmol/kg s.c., D1): 2.9 g/pcs
- Weight gain rate (%) D1 (10 nmol/kg s.c., D1): -6.8±0.6%
- Cumulative food intake (g/pcs) D2 (10 nmol/kg s.c., D2): 4.0 g/pcs
- Weight gain rate (%) D2 (10 nmol/kg s.c., D2): -7.1±1.1%
- Cumulative food intake (g/pcs) D3 (10 nmol/kg s.c., D3): 6.4 g/pcs
- Weight gain rate (%) D3 (10 nmol/kg s.c., D3): -5.2±1.3%
- Cumulative food intake (g/pcs) D4 (10 nmol/kg s.c., D4): 9.3 g/pcs
- Weight gain rate (%) D4 (10 nmol/kg s.c., D4): -3.8±1.3%
- Liver index/% [9]: 3.0±0.0^a %
- Liver/g [9]: 1.1±0.1^a g
- Weight/g [9]: 38.3±2.9^a g
- ALT (U/L) [10]: 45.4±14.6^a U/L
- AST (U/L) [10]: 131.2±19.2^a U/L
- CHOL (mmol/L) [10]: 4.5±0.6^a mmol/L
- TRIGL (mmol/L) [10]: 0.6±0.1^a mmol/L
